Experiments:
children with PFIC = experiment: PEDFIC 1: treatment responders in analysis of pretreatment serum bile acid parameters; format: in vivo, human
Protocol: This analysis included children with PFIC aged 0.5-18 years with elevated sBAs and history of significant pruritus who were treated with odevixibat 40 μg/kg/day (n=23) or 120 μg/kg/day (n=19) in […] 1. Pretreatment sBA composition was analyzed using liquid chromatography-tandem mass spectrometry, quantifying serum concentrations of total BAs and primary (cholate, chenodeoxycholate) and secondary (deoxycholate, lithocholate) BAs. sBA concentrations are presented below including and excluding the contribution from ursodeoxycholate (UDCA). Pretreatment serum concentrations of 7α-hydroxy-4-cholesten-3-one (C4) were also quantified. Pretreatment parameters were analysed in treatment responders (Rs; i.e., patients with sBAs≤70 μmol/L or reduced ≥70% and/or a ≥1-point drop in observer-reported pruritus score from baseline to end of treatment) vs nonresponders (NRs).

patients with PFIC = experiment: Pooled PEDFIC 1/2: relationships between changes in autotaxin, pruritus and serum bile acids (weeks 25-48); format: in vivo, human
Protocol: Phase 3 study data of 77 patients treated with odevisibat was pooled from the PEDFIC 1 and PEDFIC 2 studies. In PEDFIC 1, patients received placebo or odevixibat 40 or 120 μg/kg/day for 24 weeks; in PEFFIC 2, patients were enrolled in an ongoing extension study, with all patients receiving 120 μg/kg/day. At the data cutoff, 77 patients had received odevixibat. The median length of odevixibat treatment was 37 weeks, with a range of 1-108 weeks. Most patients (88%) were continuing on treatment. Characteristics of patients with available data at weeks 25-48 who were included in the current analyses were generally similar to the overall study population.
Autotaxin was assessed prior to treatment and throughout PEDFIC 1 and PEDFIC 2. Caregivers evaluated patients' pruritus using the validated PRUCISION scale, where scores range from 0 to 4; higher scores indicate worse symptoms. Serum bile acid measurements were taken at all study visits.
Relationships between changes from baseline to weeks 25-48 in autotaxin, pruritus, and serum bile acid levels were assessed as post hoc analyses. Changes from baseline were summarized descriptively. Pearson coefficients and P values were calculated for correlations. Responders were defined as ≥70% reduction from baseline in serum bile acids or serum bile acids ≤70 μmol/L at last assessment up to week 48 and/or pruritus score reduction of ≥1 point from baseline based on last available monthly or 12-week interval score up to week 48.
Values are based on last assessment up to week 48. For serum bile acids, this was the average value from weeks 46 and 48 when available; otherwise, the last available assessment in the interval was used. For pruritus, last monthly score was used when available; otherwise, the score from the last 12 weeks was used. For autotaxin, the last assessment within the interval was used.

[1] = patients analyzed in correlation analyses, N=44

## CCCCC1(CCCC)CN(c2ccccc2)c2cc(SC)c(OCC(=O)N[C@@H](C(=O)N[C@@H](CC)C(=O)O)c3ccc(O)cc3)cc2S(=O)(=O)N1 [Odevixibat, 1,1-dioxo-3,3-dibutyl-5-phenyl-7-methylthio-8-(N-{(R)-α-[N-((S)-1-carboxypropyl)carbamoyl]-4-hydroxybenzyl}carbamoylmethoxy)-2,3,4,5-tetrahydro-1,2,5-benzothiadiazepine]
Children with PFIC; PEDFIC 1, 40 μg/kg/day
  proportion of treatment responders (sBAs ≤70 μmol/L or reduced ≥70% and/or ≥1-point drop in pruritus score): 16/23
Children with PFIC; PEDFIC 1, dose groups combined, 24/42
  proportion of treatment responders (sBAs ≤70 μmol/L or reduced ≥70% and/or ≥1-point drop in pruritus score): 57%
Patients with PFIC; patients analyzed in correlation analyses, N=33
  Autotaxin, percentage change from baseline to weeks 25-48, mean (SE): −50% (6%)
Patients with PFIC; patients analyzed in correlation analyses, N=33, last assessment up to week 48
  Autotaxin, change from baseline to weeks 25-48, mean (SE): −1696 (266) ng/ml
Patients with PFIC; [1]
  Serum bile acids, change from baseline to weeks 25-48, mean (SE): −140 (25) μmol/L
  Serum bile acids, percentage change from baseline to weeks 25-48, mean (SE): −49% (8%)
Patients with PFIC; patients analyzed in correlation analyses, N=44, PRUCISION scale
  Pruritus score (range, 0-4), change from baseline to weeks 25-48, mean (SE): −1.4 (0.2)
Patients with PFIC; patients with PFIC
  effect on autotaxin, pruritus and serum bile acids: reduced autotaxin, pruritus, and serum bile acids

From patent publication US12447156B2, “Treating progressive familial intrahepatic cholestasis (PFIC) with IBAT inhibitors” (ALBIREO AB, priority 2020, dated 2025)
